Source: patent US20250326755A1, “CYCLIC QUATERNARY AMMONIUM SALT COMPOUND, AND PREPARATION METHOD THEREFOR AND USE THEREOF” (YICHANG HUMANWELL PHARMACEUTICAL CO., LTD., priority 2022, published 2025)
Where a name gives a salt, the structure may show the parent alone. Read-outs that look alike come from different tables or passages of the source.

Columns and labels:
Assay type in all cases: in vivo, SD rats
[1] = system: sciatic nerve of the rat
Protocol: The experimental methods described in the following test examples were standard procedures unless otherwise specified. All experimental animals used in the following test examples were SD rats purchased from Hunan Slac Jingda Experimental Animal Co., Ltd. Other test materials, unless stated otherwise, were purchased from conventional biochemical reagent suppliers.
The compounds listed in Table 1 and levobupivacaine hydrochloride (positive control) were administered to three groups of rats fully acclimated to the experimental environment, with one rat per group.
Solution Preparation: 2 mg/ml Levobupivacaine Hydrochloride Injection: 2.670 ml of 7.5 mg/ml levobupivacaine hydrochloride injection (Batch No. 92S0702) was pipetted into a 10 ml volumetric flask. 0.9% NaCl solution was added until the meniscus was level with the calibration line, and the solution was inverted and mixed thoroughly, to prepare 2 mg/ml levobupivacaine hydrochloride injection. 2 mg/ml Example Compound Solution: 6.6 mg of the example compound was accurately weighed and dissolved in 3.3 ml of 0.9% NaCl solution to prepare a 2 mg/ml example compound solution.
Both the positive control and the example compound were administered to each rat at 2 mg/ml, with an administration volume of 5 ml/kg, in a single injection near the sciatic nerve of the rat. After the administration, the rat was placed on a preheated hot plate (50±0.1° C.) of an intelligent hot plate instrument. […] The maximum thermal latency was controlled at 60 s. […] Any urine or feces on the hot plate was promptly cleaned and dried before subsequent tests.
Thermal latency results were expressed as the maximum proportional effect (MPE), calculated using the following formula.
Wherein: B represented the basal thermal latency of the rats; P was the maximum thermal latency C was the observed thermal latency at the detection time point.
Measurements were considered invalid if the MPE was less than 50% of the maximum proportional effect. If two consecutive measurements yielded an MPE of less than […], the experiment was terminated.

[2] = system: rat subcutaneous infiltration model; assay: Local anesthetic effect by subcutaneous infiltration, Von Frey needle stimulation of back skin
Protocol: After shaving and disinfecting the backs of SD rats (half male and half female) weighing 190-210 grams, a circle with a diameter of approximately 1.5 cm was drawn on one side of the exposed skin. 0.5 mL of a solution containing the drug was subcutaneously injected into the skin in the center. The solution, using physiological saline as the solvent, contained either 2 mg/ml bupivacaine hydrochloride or 1 mg/ml concentration of the compounds listed in Table 2 of the present application. Each group consisted of 10 rats. A Von Frey fiber with a 100-gram force was attached to a needle for local skin stimulation. One minute after drug administration, the rat's response to the stimulus was measured. Testing was conducted at 6 different points within the marked area of drug administration. Skin contraction, avoidance, and other behaviors following stimulation were observed and recorded. Three points in the center and three points around the circle were stimulated, and the number of skin contraction and avoidance behaviors was recorded as N6. […] Each compound was tested on 10 rats.

[3] = system: rat subcutaneous infiltration model; assay: as above; remark: listed apart in the source
[4] = 2 mg/ml, 5 ml/kg, single injection near the sciatic nerve of the rat, hot plate 50±0.1° C.
[5] = 1 mg/ml, 0.5 mL subcutaneous injection on the back, 10 rats

| Compound | Onset Time/min [1, 4] [min] | Duration/h [2, 5] [h] | Onset Time/min [2, 5] [min] | Duration/h ([3]; Drug Concentration 0.3 mmol/L) [h] | Duration/h ([3]; Drug Concentration 1 mmol/L) [h] | Duration/h [1, 4] [h] | Duration/h ([1]; rat, in vivo) [h] | Onset Time/min ([1]; rat, in vivo) [min] | Duration/h ([2]; Drug Concentration 6.9 mmol/L, subcutaneous infiltration) [h] | Duration/h ([2]; control at 2 mg/ml (6.9 mmol/L), 0.5 mL subcutaneous injection on the back) [h] |
| --- | --- | --- | --- | --- | --- | --- | --- | --- | --- | --- |
| CCCC[N+]1(CCCCNc2ccc(F)cc2)CCCC[C@H]1C(=O)Nc1c(C)cccc1C (stereo partly drawn) [Compound of Example 3, (2S)-1-Butyl-2-((2,6-dimethylphenyl)carbamoyl)-1-(4-(p-fluorophenylamino)butyl)piperidine bromide] | 1 | 72 to 96 | 1 | 24 to 48 | 48 to 72 | – | – | – | – | – |
| CCCC[N+]1(CCCCOc2cccc(C)c2)CCCC[C@H]1C(=O)Nc1c(C)cccc1C (stereo partly drawn) [Compound of Example 5, (2S)-1-Butyl-2-((2,6-dimethylphenyl)carbamoyl)-1-(4-(m-tolyloxy)butyl)piperidine bromide] | 1 | 72 to 96 | 1 | 24 to 48 | 48 to 72 | 48 to 72 | – | – | – | – |
| CCCC[N+]1(CCCCCN2CCn3cccc3C2c2ccccc2)CCCC[C@H]1C(=O)Nc1c(C)cccc1C (stereo partly drawn) [Compound of Example 13, (2S)-1-Butyl-2-((2,6-dimethylphenyl)carbamoyl)-1-(5-1-phenyl-3,4-dihydropyrrolo[1,2-a]pyrazin-2(1H)-yl)pentyl)piperidine bromide] | 1 | 48 to 72 | 1 | – | – | 24 to 48 | – | – | – | – |
| CCCC[N+]1(CCCCCOc2ccccc2)CCCC[C@H]1C(=O)Nc1c(C)cccc1C (stereo partly drawn) [Compound of Example 14, (2S)-1-Butyl-2-((2,6-dimethylphenyl)carbamoyl)-1-(5-(phenoxy)pentyl)piperidine bromide] | – | 48 to 72 | 2 | – | – | – | 24 to 48 | 2 | – | – |
| CCCC[N+]1(CCCCCOc2cccc(C)c2)CCCC[C@H]1C(=O)Nc1c(C)cccc1C (stereo partly drawn) [Compound of Example 15, (2S)-1-Butyl-2-((2,6-dimethylphenyl)carbamoyl)-1-(5-(m-tolyloxy)pentyl)piperidine bromide] | 1 | 48 to 72 | 1 | – | – | 24 to 48 | – | – | – | – |
| CCCC[N+]1(CCCCCOc2cc(F)ccc2N)CCCC[C@H]1C(=O)Nc1c(C)cccc1C (stereo partly drawn) [Compound of Example 16, (2S)-1-(5-(2-amino-5-fluorophenoxy)pentyl)-1-butyl-2-((2,6-dimethylphenyl)carbamoyl)piperidine bromide] | 1 | 48 to 72 | 1 | – | – | 24 to 48 | – | – | – | – |
| CCCC[N+]1(CCC(C)CCNc2ccc(F)cc2)CCCC[C@H]1C(=O)Nc1c(C)cccc1C (stereo partly drawn) [Compound of Example 18, (2S)-1-Butyl-2-((2,6-dimethylphenyl)carbamoyl)-1-(5-(((4-fluorophenyl)amino)-3-methylpentyl)piperidine bromide] | 2 | 24 to 28 | 2 | – | – | 17 | – | – | – | – |
| CCCC[N+]1(CCCCOc2ccc(F)cc2)CCCC[C@H]1C(=O)Nc1c(C)cccc1C (stereo partly drawn) [Compound of Example 24, (2S)-1-Butyl-2-((2,6-dimethylphenyl)carbamoyl)-1-(4-(4-fluorophenoxy)butyl)piperidine bromide] | 1 | 48 to 72 | 1 | – | – | – | – | – | – | – |
| CCCC[N+]1(CCCCOc2c(C)cc(C)cc2C)CCCC[C@H]1C(=O)Nc1c(C)cccc1C (stereo partly drawn) [Compound of Example 25, (2S)-1-Butyl-2-((2,6-dimethylphenyl)carbamoyl)-1-(4-(symmetricalmesityloxy)butyl)piperidine bromide] | 1 | 72 to 96 | 1 | 24 to 48 | 48 to 72 | – | – | – | – | – |
| CCCC[N+]1(CCCCOc2cccc(F)c2)CCCC[C@H]1C(=O)Nc1c(C)cccc1C (stereo partly drawn) [Compound of Example 26, (2S)-1-Butyl-2-((2,6-dimethylphenyl)carbamoyl)-1-(4-(3-fluorophenoxy)butyl)piperidine bromide] | 1 | 48 to 72 | 1 | – | – | 24 to 42 | – | – | – | – |
| CCCC[N+]1(CCCCOc2cccc(C#N)c2)CCCC[C@H]1C(=O)Nc1c(C)cccc1C (stereo partly drawn) [Compound of Example 27, (2S)-1-Butyl-1-(4-(3-cyanophenoxy)butyl)-2-((2,6-dimethylphenyl)carbamoyl)piperidine bromide] | 1 | 48 to 72 | 1 | – | – | 24 to 48 | – | – | – | – |
| CCCC[N+]1(CCCCOc2cccc(C(F)(F)F)c2)CCCC[C@H]1C(=O)Nc1c(C)cccc1C (stereo partly drawn) [Compound of Example 28, (2S)-1-Butyl-2-((2,6-dimethylphenyl)carbamoyl)-1-(4-(3-(trifluoromethyl)phenoxy)butyl) piperidine bromide] | 1 | 48 to 72 | 1 | – | – | 24 to 48 | – | – | – | – |
| CCCC[N+]1(CCCCOc2ccccc2C)CCCC[C@H]1C(=O)Nc1c(C)cccc1C (stereo partly drawn) [Compound of Example 30, (2S)-1-Butyl-2-((2,6-dimethylphenyl)carbamoyl)-1-(4-(o-tolyloxy)butyl)piperidine bromide] | – | 72 to 96 | 1 | 24 to 48 | 48 to 72 | – | 72 to 96 | 1 | – | – |
| CCCC[N+]1(CCCCOc2ccc(C)cc2)CCCC[C@H]1C(=O)Nc1c(C)cccc1C (stereo partly drawn) [Compound of Example 31, (2S)-1-Butyl-2-((2,6-dimethylphenyl)carbamoyl)-1-(4-(p-tolyloxy)butyl)piperidine bromide] | 1 | 48 to 72 | 1 | – | – | 24 to 30 | – | – | – | – |
| Cc1cccc(C)c1NC(=O)[C@@H]1CCCC[N+]1(CCCCOc1ccccc1)CC1CCCC1 (stereo partly drawn) [Compound of Example 36, (2S)-1-(Cyclopentylmethyl)-2-((2,6-dimethylphenyl)carbamoyl)-1-(4-phenoxybutyl)piperidine bromide] | 1 | 48 to 72 | 1 | – | – | 30 to 48 | – | – | – | – |
| Cc1cccc(C)c1NC(=O)[C@@H]1CCCC[N+]1(CCCCOc1ccccc1)CCCC(C)C (stereo partly drawn) [Compound of Example 38, (2S)-2-((2,6-Dimethylphenyl)carbamoyl)-1-(4-methylpentyl)-1-(4-phenoxybutyl)piperidine bromide] | – | 48 to 72 | 1 | – | – | – | 48 to 72 | 1 | – | – |
| CCCC[N+]1(CCCCOc2ccccc2)CCCC[C@H]1C(=O)Nc1c(Br)cccc1Br (stereo partly drawn) [Compound of Example 40, (2S)-1-Butyl-2-((2,6-dibromophenyl)carbamoyl)-1-(4-phenoxybutyl)piperidine bromide] | – | 48 to 72 | 1 | – | – | – | 32 to 48 | 1 | – | – |
| CCCC[N+]1(CCCCOc2cccc3c2OC(C)(C)C3)CCCC[C@H]1C(=O)Nc1c(C)cccc1C (stereo partly drawn) [Compound of Example 44, (2S)-1-Butyl-1-(4-((2,2-dimethyl-2,3-dihydrobenzofuran-7-yl)oxy)butyl)-2-((2,6-dimethylphenyl)carbamoyl)piperidine bromide] | 1 | 48 to 72 | 1 | – | – | – | – | – | – | – |
| CCCCN1CCCC[C@H]1C(=O)Nc1c(C)cccc1C [Levobupivacaine Hydrochloride, reference compound] | – | – | – | – | – | 3 | – | – | 3 | 3 |
| (2S)-1-Butyl-2-((4-fluorophenyl)carbamoyl)-1-(4-(m-tolyloxy)butyl)piperidine bromide [Compound of Example 22] | 1 | 48 to 72 | 1 | – | – | 48 to 72 | – | – | – | – |
